# Assay results as given in patent US7074789B2, “Kinase inhibitors” (Amgen Inc., priority 1999, dated 2006).
# Key:
# Format in all cases: biochemical
# Fyn = target: T1, Fyn (Homo sapiens, UniProt P06241); experiment: Kinase inhibition assay (33P transfer), Fyn; details: read-out: Fyn-1
# T1 construct: Kinases are expressed as either kinase domains or full length constructs; made in house
# Summary of the method: (§1)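 Read-out: scintillation counts of 33P moved from ATP onto synthetic peptide polymer coated on the well surface, after washing with 0.5% phosphoric acid. Enzymes were tagged (GST or polyHistidine) and came from bacterial or insect-cell expression. IC50 marks 50% loss of incorporated label.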
# ErbB4 = target: T2, ErbB4 (Homo sapiens, UniProt Q15303); experiment: Kinase inhibition assay (33P transfer), ErbB4; details: read-out: ErbB4-1
# T2 construct: Kinases are expressed as either kinase domains or full length constructs; made in house
# Ret-1 = target: T3, Ret-1 (Homo sapiens, UniProt P07949); experiment: Kinase inhibition assay (33P transfer), Ret; details: Table 6, Ret-1 kinase inhibition class
# T3 construct: Kinases are expressed as either kinase domains or full length constructs; made in house
# Lck = target: T4, Lck (Homo sapiens, UniProt P06239); experiment: Kinase inhibition assay (33P transfer), Lck; details: Table 3; read-out: Lck-1
# T4 construct: Kinases are expressed as either kinase domains or full length constructs; made in house
# Summary of the method: (§2)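 Each kinase, expressed as a GST- or polyHis-tagged domain or full-length protein, phosphorylated plate-attached poly(Glu,Tyr) 4:1 or poly(Arg,Ser) 3:1 using 33P-ATP. Bound radioactivity was measured by scintillation after a 0.5% phosphoric acid wash.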
# IGFR-1 = target: T5, IGFR-1 (Homo sapiens, UniProt P08069); experiment: Kinase inhibition assay (33P transfer), IGFR-1; details: Table 2, kinase inhibition class
# T5 construct: Kinases are expressed as either kinase domains or full length constructs; made in house
# EPHB4 = target: T6, EPHB4 (Homo sapiens, UniProt P54760); experiment: Kinase inhibition assay (33P transfer), EPHB4; details: read-out: EPHB4-1
# T6 construct: Kinases are expressed as either kinase domains or full length constructs; made in house
# T6 sequence (P54760 16-987): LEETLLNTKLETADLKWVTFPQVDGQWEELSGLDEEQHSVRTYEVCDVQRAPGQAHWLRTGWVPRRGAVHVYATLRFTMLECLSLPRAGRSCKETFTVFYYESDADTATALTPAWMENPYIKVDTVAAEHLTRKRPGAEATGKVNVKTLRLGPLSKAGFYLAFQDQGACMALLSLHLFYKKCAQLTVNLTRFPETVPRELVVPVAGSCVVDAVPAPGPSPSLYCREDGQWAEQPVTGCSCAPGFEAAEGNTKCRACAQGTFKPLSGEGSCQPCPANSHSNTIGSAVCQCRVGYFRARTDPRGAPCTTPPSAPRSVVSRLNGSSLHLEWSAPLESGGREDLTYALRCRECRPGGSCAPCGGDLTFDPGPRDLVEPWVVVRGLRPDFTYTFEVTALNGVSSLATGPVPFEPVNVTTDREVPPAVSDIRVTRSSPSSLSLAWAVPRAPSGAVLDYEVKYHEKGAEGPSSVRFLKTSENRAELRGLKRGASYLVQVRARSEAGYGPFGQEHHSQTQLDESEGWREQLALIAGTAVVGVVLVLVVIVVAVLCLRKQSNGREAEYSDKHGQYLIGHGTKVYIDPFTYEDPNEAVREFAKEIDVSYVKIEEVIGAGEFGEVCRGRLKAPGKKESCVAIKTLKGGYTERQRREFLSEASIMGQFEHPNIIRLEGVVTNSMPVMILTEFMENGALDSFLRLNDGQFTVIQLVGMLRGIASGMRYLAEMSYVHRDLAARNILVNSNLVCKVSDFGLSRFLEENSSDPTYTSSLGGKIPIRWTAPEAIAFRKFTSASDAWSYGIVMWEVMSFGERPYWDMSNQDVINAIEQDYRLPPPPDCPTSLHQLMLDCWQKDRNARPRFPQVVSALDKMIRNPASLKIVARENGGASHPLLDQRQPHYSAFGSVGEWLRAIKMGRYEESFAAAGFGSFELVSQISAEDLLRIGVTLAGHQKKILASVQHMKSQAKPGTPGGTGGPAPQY
# EGFR = target: T7, EGFR (Homo sapiens, UniProt P00533); experiment: Kinase inhibition assay (33P transfer), EGFR; details: Table 2, kinase inhibition class; read-out: EGFR-1
# T7 construct: Kinases are expressed as either kinase domains or full length constructs; made in house
# Summary of the method: as §1
# Tek = target: T8, Tek (Homo sapiens, UniProt Q02763); experiment: Kinase inhibition assay (33P transfer), Tek; details: read-out: Tek-1
# T8 construct: Kinases are expressed as either kinase domains or full length constructs; made in house
# Summary of the method: as §1
# c-Met = target: T9, c-Met (Homo sapiens, UniProt P08581); experiment: Kinase inhibition assay (33P transfer), c-Met; details: Table 2, kinase inhibition class; read-out: Met-1
# T9 construct: Kinases are expressed as either kinase domains or full length constructs; made in house
# Summary of the method: as §1
# Lyn = target: T10, Lyn (Homo sapiens, UniProt P07948); experiment: Kinase inhibition assay (33P transfer), Lyn; details: Table 6, Lyn-1 kinase inhibition class
# T10 construct: Kinases are expressed as either kinase domains or full length constructs; made in house
# Summary of the method: as §1
# FGFR1 = target: T11, FGFR1 (Homo sapiens, UniProt P11362); experiment: Kinase inhibition assay (33P transfer), FGFR1; details: read-out: FGFR1-1
# T11 construct: Kinases are expressed as either kinase domains or full length constructs; made in house
# Flt-1 = target: T12, Flt-1 (Homo sapiens, UniProt P17948); experiment: Kinase inhibition assay (33P transfer), Flt-1
# T12 construct: Kinases are expressed as either kinase domains or full length constructs; made in house
# Summary of the method: as §1
# AKT = target: T13, AKT (Homo sapiens, UniProt Q9Y243); experiment: Kinase inhibition assay (33P transfer), AKT; details: Table 2, kinase inhibition class; read-out: AKT3-1
# T13 construct: Kinases are expressed as either kinase domains or full length constructs; made in house
# Summary of the method: as §2
# T8 sequence (Q02763 23-1124, species assumed): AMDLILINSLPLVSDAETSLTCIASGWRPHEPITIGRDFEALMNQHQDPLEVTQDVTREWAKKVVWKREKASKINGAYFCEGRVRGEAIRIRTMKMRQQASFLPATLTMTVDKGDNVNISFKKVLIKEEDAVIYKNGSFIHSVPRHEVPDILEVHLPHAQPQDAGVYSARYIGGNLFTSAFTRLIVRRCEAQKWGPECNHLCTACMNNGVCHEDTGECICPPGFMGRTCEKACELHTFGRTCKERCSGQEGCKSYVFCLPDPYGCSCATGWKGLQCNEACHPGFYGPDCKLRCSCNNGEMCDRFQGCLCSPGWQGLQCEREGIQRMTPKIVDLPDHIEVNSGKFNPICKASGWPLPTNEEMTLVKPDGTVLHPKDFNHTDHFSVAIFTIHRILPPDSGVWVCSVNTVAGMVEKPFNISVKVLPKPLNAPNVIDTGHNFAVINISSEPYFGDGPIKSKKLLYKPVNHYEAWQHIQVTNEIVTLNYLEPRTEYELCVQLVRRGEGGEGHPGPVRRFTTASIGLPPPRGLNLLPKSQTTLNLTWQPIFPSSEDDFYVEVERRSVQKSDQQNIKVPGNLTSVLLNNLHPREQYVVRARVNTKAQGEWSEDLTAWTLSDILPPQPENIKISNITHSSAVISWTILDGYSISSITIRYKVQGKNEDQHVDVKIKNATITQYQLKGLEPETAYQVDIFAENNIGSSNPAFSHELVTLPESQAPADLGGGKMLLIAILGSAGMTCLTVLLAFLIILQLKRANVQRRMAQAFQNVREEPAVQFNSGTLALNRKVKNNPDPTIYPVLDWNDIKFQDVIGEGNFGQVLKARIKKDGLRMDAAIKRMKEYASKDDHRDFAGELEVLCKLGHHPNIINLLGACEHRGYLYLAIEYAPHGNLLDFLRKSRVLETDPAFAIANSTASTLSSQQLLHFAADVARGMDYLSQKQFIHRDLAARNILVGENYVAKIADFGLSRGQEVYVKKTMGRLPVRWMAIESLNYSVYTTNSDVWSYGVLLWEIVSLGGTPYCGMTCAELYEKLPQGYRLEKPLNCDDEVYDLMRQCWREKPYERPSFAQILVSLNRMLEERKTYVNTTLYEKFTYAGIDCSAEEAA
# T7 sequence (P00533 25-1210, species assumed): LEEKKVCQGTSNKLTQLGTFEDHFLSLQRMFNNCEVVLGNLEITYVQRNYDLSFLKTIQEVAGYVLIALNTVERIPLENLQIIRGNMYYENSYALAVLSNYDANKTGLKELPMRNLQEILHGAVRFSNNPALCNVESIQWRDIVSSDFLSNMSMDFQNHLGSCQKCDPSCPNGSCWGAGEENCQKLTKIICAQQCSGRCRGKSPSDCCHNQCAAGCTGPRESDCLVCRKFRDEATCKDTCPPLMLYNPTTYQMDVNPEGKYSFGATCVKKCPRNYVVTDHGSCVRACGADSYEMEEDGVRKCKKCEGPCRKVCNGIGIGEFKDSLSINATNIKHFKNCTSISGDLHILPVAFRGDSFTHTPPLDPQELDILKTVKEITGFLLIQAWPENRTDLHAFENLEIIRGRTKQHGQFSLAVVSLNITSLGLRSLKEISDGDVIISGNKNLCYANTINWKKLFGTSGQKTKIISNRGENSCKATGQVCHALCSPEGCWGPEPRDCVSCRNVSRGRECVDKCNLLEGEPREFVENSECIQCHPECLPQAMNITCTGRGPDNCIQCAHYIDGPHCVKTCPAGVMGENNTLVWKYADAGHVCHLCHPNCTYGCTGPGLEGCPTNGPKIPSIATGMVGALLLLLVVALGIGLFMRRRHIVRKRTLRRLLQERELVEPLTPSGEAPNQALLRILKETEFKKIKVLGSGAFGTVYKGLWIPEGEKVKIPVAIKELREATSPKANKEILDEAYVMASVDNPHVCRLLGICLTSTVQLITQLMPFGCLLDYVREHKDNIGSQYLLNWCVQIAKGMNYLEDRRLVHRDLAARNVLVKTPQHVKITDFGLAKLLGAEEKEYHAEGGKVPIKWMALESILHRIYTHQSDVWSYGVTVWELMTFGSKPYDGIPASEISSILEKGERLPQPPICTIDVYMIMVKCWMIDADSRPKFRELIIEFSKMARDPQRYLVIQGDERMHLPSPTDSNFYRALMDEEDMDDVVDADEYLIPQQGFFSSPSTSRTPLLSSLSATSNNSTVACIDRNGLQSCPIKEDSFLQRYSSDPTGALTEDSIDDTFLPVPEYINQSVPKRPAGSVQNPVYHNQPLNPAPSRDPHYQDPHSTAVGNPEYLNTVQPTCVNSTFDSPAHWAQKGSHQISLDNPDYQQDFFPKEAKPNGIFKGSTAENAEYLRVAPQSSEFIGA
# T9 sequence (P08581 25-1390): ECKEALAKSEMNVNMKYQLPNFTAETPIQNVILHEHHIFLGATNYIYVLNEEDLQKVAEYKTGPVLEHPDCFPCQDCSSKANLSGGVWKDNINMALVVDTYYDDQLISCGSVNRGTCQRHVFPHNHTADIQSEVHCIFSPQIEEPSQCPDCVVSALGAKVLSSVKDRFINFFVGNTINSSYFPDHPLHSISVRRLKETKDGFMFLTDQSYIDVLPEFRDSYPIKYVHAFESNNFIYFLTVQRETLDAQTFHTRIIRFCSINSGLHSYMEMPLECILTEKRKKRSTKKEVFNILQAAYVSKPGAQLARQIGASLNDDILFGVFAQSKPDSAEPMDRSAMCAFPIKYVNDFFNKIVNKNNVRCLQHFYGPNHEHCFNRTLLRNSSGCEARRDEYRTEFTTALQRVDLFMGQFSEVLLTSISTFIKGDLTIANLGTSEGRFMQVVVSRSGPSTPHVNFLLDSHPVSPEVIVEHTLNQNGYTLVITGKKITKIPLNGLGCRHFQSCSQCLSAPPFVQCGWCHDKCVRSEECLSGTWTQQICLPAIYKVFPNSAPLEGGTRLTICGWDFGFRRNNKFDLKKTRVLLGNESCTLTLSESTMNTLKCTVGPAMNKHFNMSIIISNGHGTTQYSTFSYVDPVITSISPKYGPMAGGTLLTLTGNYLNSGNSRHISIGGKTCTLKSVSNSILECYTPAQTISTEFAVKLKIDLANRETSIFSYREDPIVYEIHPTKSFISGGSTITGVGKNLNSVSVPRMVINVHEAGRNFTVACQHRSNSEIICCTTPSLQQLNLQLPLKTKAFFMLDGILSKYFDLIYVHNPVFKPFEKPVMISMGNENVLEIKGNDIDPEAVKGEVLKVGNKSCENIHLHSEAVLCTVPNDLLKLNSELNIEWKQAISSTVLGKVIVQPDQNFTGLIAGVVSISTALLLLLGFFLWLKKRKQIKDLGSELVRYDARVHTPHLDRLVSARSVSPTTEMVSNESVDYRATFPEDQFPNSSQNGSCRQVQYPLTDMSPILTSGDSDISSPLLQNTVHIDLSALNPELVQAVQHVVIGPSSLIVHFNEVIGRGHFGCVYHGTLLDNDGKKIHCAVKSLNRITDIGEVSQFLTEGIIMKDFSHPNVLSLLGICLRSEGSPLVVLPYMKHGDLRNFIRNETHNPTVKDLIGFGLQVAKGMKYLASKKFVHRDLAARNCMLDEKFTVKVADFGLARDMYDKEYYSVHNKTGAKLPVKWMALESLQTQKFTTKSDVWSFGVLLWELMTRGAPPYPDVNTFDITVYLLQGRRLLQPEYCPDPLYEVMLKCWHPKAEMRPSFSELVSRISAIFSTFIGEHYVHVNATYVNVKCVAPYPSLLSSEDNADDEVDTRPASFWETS
# T4 sequence (P06239 whole entry, species assumed, the tested form may be a part): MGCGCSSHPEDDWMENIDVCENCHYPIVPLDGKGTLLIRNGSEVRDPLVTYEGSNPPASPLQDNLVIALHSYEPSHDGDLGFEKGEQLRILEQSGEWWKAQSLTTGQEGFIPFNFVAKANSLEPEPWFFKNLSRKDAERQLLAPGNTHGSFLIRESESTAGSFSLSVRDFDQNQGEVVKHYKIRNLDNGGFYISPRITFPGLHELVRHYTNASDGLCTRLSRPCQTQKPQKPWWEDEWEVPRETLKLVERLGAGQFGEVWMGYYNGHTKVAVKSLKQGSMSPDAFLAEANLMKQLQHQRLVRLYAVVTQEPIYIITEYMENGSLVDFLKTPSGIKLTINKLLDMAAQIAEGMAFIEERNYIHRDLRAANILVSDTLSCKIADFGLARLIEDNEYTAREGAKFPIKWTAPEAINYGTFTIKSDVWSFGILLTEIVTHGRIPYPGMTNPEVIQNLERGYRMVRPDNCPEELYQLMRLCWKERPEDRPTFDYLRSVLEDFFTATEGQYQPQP
# T13 sequence (Q9Y243 whole entry, the tested form may be a part): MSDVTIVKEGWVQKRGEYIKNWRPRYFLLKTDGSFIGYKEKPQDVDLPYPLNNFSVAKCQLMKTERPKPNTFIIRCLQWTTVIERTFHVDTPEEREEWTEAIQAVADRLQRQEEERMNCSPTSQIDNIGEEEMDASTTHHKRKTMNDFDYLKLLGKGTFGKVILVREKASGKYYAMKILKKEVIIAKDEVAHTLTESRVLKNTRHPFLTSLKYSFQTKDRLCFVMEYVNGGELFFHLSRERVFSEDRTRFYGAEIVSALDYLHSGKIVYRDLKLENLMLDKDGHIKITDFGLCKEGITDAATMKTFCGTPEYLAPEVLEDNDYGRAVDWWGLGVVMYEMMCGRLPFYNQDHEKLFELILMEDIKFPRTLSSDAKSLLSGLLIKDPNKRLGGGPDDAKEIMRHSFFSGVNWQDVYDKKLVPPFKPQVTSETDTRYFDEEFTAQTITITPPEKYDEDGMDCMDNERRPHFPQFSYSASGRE
Compound,IC50 (Fyn) [µM],IC50 (ErbB4) [µM],IC50 (Ret-1) [µM],IC50 (Lck) [µM],IC50 (IGFR-1) [µM],IC50 (EPHB4) [µM],IC50 (EGFR) [µM],IC50 (Tek) [µM],IC50 (c-Met) [µM],IC50 (Lyn) [µM],IC50 (FGFR1) [µM],IC50 (Flt-1) [µM],IC50 (AKT) [µM]
COc1cc(Nc2ncnc(-n3ncc4ccccc43)n2)cc(OC)c1OC [Compound 240],1.06 to 6.34,> 11.9,6.34 to 9.25,1.06 to 6.34,> 11.9,> 11.9,> 11.9,> 11.9,> 11.9,1.06 to 6.34,6.34 to 9.25,1.06 to 6.34,> 11.9
Cc1cccc(Nc2ncnc(Nc3ccc(O)cc3)n2)c1 [Compound 107],< 1.36,8.18 to 11.9,1.36 to 8.18,1.36 to 8.18,1.36 to 8.18,1.36 to 8.18,< 1.36,> 15.3,8.18 to 11.9,< 1.36,1.36 to 8.18,< 1.36,1.36 to 8.18
COc1ccc(Sc2ncnc(Nc3cc(OC)c(OC)c(OC)c3)n2)cc1 [Compound 175],0.999 to 5.99,> 11.2,5.99 to 8.74,0.999 to 5.99,0.999 to 5.99,0.999 to 5.99,> 11.2,0.999 to 5.99,0.999 to 5.99,5.99 to 8.74,> 11.2,5.99 to 8.74,> 11.2
COc1cc(Nc2ncnc(Nc3cc(-c4cccs4)n[nH]3)n2)cc(OC)c1OC [Compound 318],< 0.94,< 0.94,< 0.94,0.94 to 5.64,< 0.94,< 0.94,< 0.94,5.64 to 8.23,< 0.94,< 0.94,0.94 to 5.64,< 0.94,8.23 to 10.6
COc1cc(Nc2ncnc(N(C/C=C/c3ccccc3)c3ccc(Cl)cc3)n2)cc(OC)c1OC [Compound 56],> 8.93,> 8.93,> 8.93,4.76 to 6.94,6.94 to 8.93,> 8.93,< 0.794,> 8.93,> 8.93,0.794 to 4.76,4.76 to 6.94,4.76 to 6.94,> 8.93
COc1cc(Nc2ncnc(-n3c(Nc4ccccc4)nc4ccccc43)n2)cc(OC)c1OC [Compound 336],> 9.58,> 9.58,< 0.852,0.852 to 5.11,> 9.58,> 9.58,> 9.58,> 9.58,> 9.58,0.852 to 5.11,< 0.852,< 0.852,> 9.58
COc1cc(Nc2ncnc(-n3ccc4ccccc43)n2)cc(OC)c1OC [Compound 185],> 11.9,> 11.9,> 11.9,6.36 to 9.27,1.06 to 6.36,> 11.9,> 11.9,> 11.9,9.27 to 11.9,> 11.9,> 11.9,1.06 to 6.36,> 11.9
COc1cc(Nc2ncnc(-n3ccc4c(OC)cccc43)n2)cc(OC)c1OC [Compound 238],> 11,> 11,> 11,> 11,> 11,> 11,> 11,> 11,> 11,> 11,> 11,> 11,> 11
COc1ccc(Nc2ncnc(Nc3cc(OC)c(OC)c(OC)c3)n2)cc1O [Compound 931],< 1,1 to 6.01,< 1,1 to 6.01,1 to 6.01,1 to 6.01,< 1,8.76 to 11.3,> 11.3,< 1,1 to 6.01,< 1,> 11.3
COc1ccc2c(c1)c(CCNC(C)=O)cn2-c1ncnc(Nc2cc(OC)c(OC)c(OC)c2)n1 [Compound 339],> 9.14,> 9.14,< 0.812,> 9.14,> 9.14,> 9.14,> 9.14,> 9.14,> 9.14,> 9.14,> 9.14,> 9.14,> 9.14
Cc1cccc(Nc2ncnc(Nc3ccc4[nH]ncc4c3)n2)c1 [Compound 120],1.26 to 7.56,1.26 to 7.56,< 1.26,11 to 14.2,< 1.26,1.26 to 7.56,< 1.26,7.56 to 11,7.56 to 11,< 1.26,1.26 to 7.56,1.26 to 7.56,7.56 to 11
COc1cc(Nc2ncnc(N(CC(=O)O)c3ccc4c(c3)OCO4)n2)cc(OC)c1OC [Compound 319],> 9.88,> 9.88,> 9.88,> 9.88,> 9.88,> 9.88,0.878 to 5.27,> 9.88,> 9.88,> 9.88,> 9.88,> 9.88,> 9.88
COc1cc(Nc2ncnc(Nc3ccc4c(ccn4Cc4ccccc4)c3)n2)cc(OC)c1OC [Compound 178],0.829 to 4.97,> 9.33,4.97 to 7.25,0.829 to 4.97,0.829 to 4.97,4.97 to 7.25,< 0.829,4.97 to 7.25,4.97 to 7.25,< 0.829,7.25 to 9.33,7.25 to 9.33,7.25 to 9.33
COc1cc(Nc2ncnc(Nc3cccc(F)c3)n2)cc(OC)c1OC [Compound 304],< 1.08,< 1.08,< 1.08,< 1.08,< 1.08,1.08 to 6.46,< 1.08,> 12.1,1.08 to 6.46,< 1.08,1.08 to 6.46,1.08 to 6.46,> 12.1
COc1cc(Nc2ncnc(N(c3ccccc3)c3nc4ccccc4[nH]3)n2)cc(OC)c1OC [Compound 335],> 9.58,> 9.58,< 0.852,0.852 to 5.11,> 9.58,0.852 to 5.11,< 0.852,> 9.58,> 9.58,0.852 to 5.11,7.45 to 9.58,0.852 to 5.11,> 9.58
COCCOc1ccc(Nc2ncnc(Nc3ccc(C)c(O)c3)n2)cc1OCCOC [Compound 125],0.906 to 5.44,7.93 to 10.2,0.906 to 5.44,0.906 to 5.44,0.906 to 5.44,> 10.2,0.906 to 5.44,> 10.2,> 10.2,< 0.906,0.906 to 5.44,< 0.906,> 10.2
